Measurements as given in US7091238B1, “Thienylhydrazon with digitalis-like properties (positive inotropic effects)” (University of Maryland, priority 1999, dated 2006).

Experiments:
[1] = Blood biochemistry analysis in treated mice; format: in vivo
Description: b. Rats were weighed before and after treatment with LASSBio 204. […] Six rats were examined in each group, measurements were made after 1–15 days of treatment. […] Mice were injected with LASSBio-294 and their blood examined for cell changes. Experimental groups received 2 or 10 mg/kg of drug. […] Table 4 lists blood chemistry analysis of mice treated with LASSBio-294. Experimental groups received 2 or 10 mg/kg of drug. Controls were saline and solvent. […] The low values of glucose found could be due to an artifact of the technique, glucose being a byproduct of hemolysis. […] General Method

LD 50 in dogs = format: in vivo; conditions: dog, in vivo
Description: (§1) LASSBio-294 has very low toxic effects. This was tested in whole mouse, rat, and dog models (Greaves, P. (1998) Exp. Toxicol. Pathol. 50, 283). These models are commonly used to predict toxicity in humans (Chou, W. L., Robbie G., Chung, S. M., Wu, T. C., and Ma, C. (1998) Pharm. Res. 15, 1474). […] These tests predict LASSBio-294 can be dosed in humans to achieve therapeutic plasma levels without significant risk of toxicity.

dogs = experiment: LD 50 in dogs; format: in vivo; conditions: dogs
Description: as §1

isolated dog hearts = experiment: Intraventricular and aortic pressure in isolated dog hearts under pre-load (Langendorff's method); conditions: compared to control or wash out
Source text: Predictive tests can also be performed on isolated hearts of animals. Testing intraventricular and arterial pressure in isolated dog hearts, under pre-load, is an animal model for human congestive heart disease, as is well known in the art. This is called Langendorff's method. It allows examination of therapeutic strategies to treat congestive heart disease. When dog hearts were so tested, LASSBio-294 treated hearts achieved a 50% increase in intraventricular and aortic pressure compared to control or wash out after treatment. […] These tests predict that the invention has utility as a medicament in the treatment of congestive heart failure (Curtis, M. J., (1998) Cardiovasc. Res. 39, 194–21, incorporated expressly by reference herein).

single muscle fiber = experiment: Fatigue development in single amphibian muscle fibers under repetitive tetanic stimulation; format: cell-based, frog, rana pipiens
Description: FIG. 17. Time course of fatigue development. Fatigue was produced by 60 Hz, 0.8 sec tetanic stimulations repeated every 4.75 sec with a twitch elicited 2.2 sec after each tetanic stimulation. a) single tetanus. b) repeated tetanic stimulations. Notice the time calibration. A) In 50 μM of DMSO only B) Same as in A, but the fiber was bathed with 50 μM of compound LASSBio-294.
FIG. 28. Time (in min) for tetanic force to decrease (fatigue) to 50% of the original tetanic force during repetitive stimulations as in FIG. 17. Left column in 50 μM of DMSO only (˜6 in). Right column in 50 μM of LASSBio-294 (˜9 min).
FIG. 29. Time of recovery to 80% of the pre-fatigue tetanic force. Left column in 50 μM of DMSO only (˜90 min). Right column in 50 μM of LASSBio-294 (˜10 min).
c. […] A is 50 μM DMSO in Ringer's solution, B is 50 μM LASSBio-294. The time to fatigue in LASSBio-294-treated is approximately 50% longer than control.
The tests in amphibians were performed in isolated single muscle cells freshly isolated from either the semitendinous or the tibialis anterior muscles of the frog, rana pipiens. The isolated muscle cells were left resting for at least half an hour in Ringer's solution. The fibers were then stimulated with single, low-voltage, electric shocks. If fibers gave brisk twitches and had no signs of membrane damage, they were used. Otherwise, they were discarded. Healthy fibers were transferred to the experimental chamber, which consisted of a 0.3 ml narrow channel where the solutions could be changed several times within five seconds. One tendon of the fiber was gripped with a small clamp and the other tendon was attached to a hook of an Ekhart;s type force transducer. The stimulating electrode consisted of platinum wires placed to each side of the fiber. The muscle fibers were stretched 1.3 times their slack length to reach approximately an average sarcomere length of 1.6 μm.
The fibers were stimulated with single electric pulses of 0.5 msec duration and variable voltage. The voltage was increased until the threshold for contraction was reached. […]

particulate PDE 3 = experiment: Direct inhibition of particulate PDE 3; format: biochemical; conditions: rabbit heart

O=C(NN=Cc1cccs1)c1ccc2c(c1)OCO2 [LASSBio-294, 3,4-methylenedioxybenzoyl-2-thienylhydrazone]
hemoglobin, erythrocytes and blood biochemistry ([1]; male and female mice, long-term treatment): values similar to control | blood chemistry values ([1]; mice, 2 or 10 mg/kg, controls saline and solvent): no significant change in blood chemistry values | LD50 (LD 50 in dogs): 1500 mg/kg | LD 50 relative to the effective dose (dogs): > 1000 fold | increase in intraventricular and aortic pressure (isolated dog hearts): 50% | time to fatigue, longer than control (single muscle fiber; 50 μM vs 50 μM DMSO, 60 Hz 0.8 sec tetanic stimulations): approximately 50% | time for tetanic force to decrease (fatigue) to 50% of the original tetanic force (single muscle fiber; 50 μM, repetitive stimulations): ~9 min | resistance to muscle fatigue (single muscle fiber; treated skeletal muscle fibers vs control fibers): increased resistance to muscle fatigue | direct inhibition of particulate PDE 3 (particulate PDE 3): did not inhibit directly
